According to US7312305B2, “Tumor cytotoxicity induced by modulators of the CXCR4 receptor” (Morehouse School of Medicine, priority 2003, dated 2007):

Key:
[1] = test system: epithelial tumor cell lines, HUVECs; experiment: Apoptotic assay with gp 120 and Nef peptides; format: cell-based, human
Description: The nef protein was expressed and purified in the inventors' laboratory. overlapping 20 mer peptides encompassing the entire nef protein and overlapping 15 mer peptides encompassing the entire gp 120 protein were obtained from the NIH AIDS Research & Reference Reagent Program (McKesson HBC BioServices, MD) Other specific peptides designed from within gp 120 or nef were obtained from SigmaGenosys.
Apoptosis, Terminal Deoxynucleotidyl Transferase dUTP Nick-end Labeling (TUNEL) Assay
Apoptosis generates DNA free ends which can be labeled in situ using terminal deoxynucleotidyl-transferase (TdT), incorporating an exogenously added labeled nucleotide to the DNA strand. This label can then be visualized directly by fluorescence or indirectly using anti-FITC-peroxidase, and a calorimetric assay. Cells on coverslips were washed with PBS, and fixed for 30 minutes at RT with 4% paraformaldehyde, in PBS, pH 7.4. They were then washed with PBS, and permeabilized with 0.1% Triton X-100
for 10 minutes at room temperature (RT). The slides were rinsed twice with PBS, and air dried for 2 minutes. The manufacturer's procedure for TUNEL staining the slides was followed (manufacturer's procedure for the In Situ Cell Death Detection Kit, AP; Boehringer Mannheim, Indianapolis, Ind.). Total cell counts were determined by counterstaining fixed cultures with 20 μg/ml of Hoechst 33258. All specimens were observed by epifluorescence on a computer-controlled microscope system based on a Zeiss Axioskop microscope (Carl Zeiss, Thornwood, N.Y.), and the images were obtained and examined using a charged coupled device (CCD) camera, MagnaFire, model S99806 (Olympus American, Melville, N.Y.). Images were examined using Image-Pro Plus 4.1 for Windows (Media Cybernetics, Silver Springs, Md.) software.
Overlapping peptide sets obtained from the AIDS Reagent Bank were used in the apoptotic assay as disclosed above. Specific pg 120 and Nef peptides within those sets were identified as inducing apoptosis in epithelial tumor cell lines, as well as in HUVECs. Alternatively, these same peptides had no effect in primary mammary epithelium or in MDA-MB-468 tumor lines.

[2] = test system: MDA-MB-231, MCF7, DU4475; experiment: Agarose gel electrophoresis/DNA fragmentation, CXCR4 expressing cell lines; format: cell-based, human; settings: 10 mM (6.35 mg/ml) ceramide
Method: Apoptosis Assay: Agarose Gel Electrophoresis/DNA Fragmentation
Untreated or treated cells were collected, and DNA was harvested from normal or cancer cell cultures. Briefly, the cells were washed with PBS, pelleted at 1600 g for 20 minutes at 4° C., and resuspended in 50 mM Tris-HCl, pH 7.5, 20 mM EDTA buffer at about 10^ 7 cells/ml. The cells were then treated 2× with lysis buffer: 1.0% NP-40 (Sigma, St. Louis, Mo.) in the same Tris/EDTA buffer at RT for 2 minutes followed, by centrifugation at 1600 g for 5 minutes. After the last spin, SDS was added to the supernatant to 1% final concentration, RNase A (Sigma, St. Louis, Mo.) was added to 5 mg/mil final concentration, and the solution incubated at 56° C. for 2 hours. Subsequently, protease K (Promega, Madison, Wis.) was added to the solution to 2.5. µg/ml and incubated at 37° C. for 2.5 hr. Ammonium acetate was added to 4 M final concentration, 0.7 volumes of isopropanol was added, the solution was put at −20° C. overnight followed by centrifugation at 14,000 rpm for 30 minutes. The pellets were washed twice with 70% ethanol, dried and resuspended in 10 mM Tris-HCl, pH […]. DNA samples, 18 µg per condition, were prepared in neutral loading buffer to a final concentration of 0.02% bromophenol blue, 5% glycerol, 0.1% SDS, and 50 µg of ethidium bromide, loaded onto a neutral agarose gel (1.7%), and run at50V for 2.5 hours. […]

## GRAFYTT [Seq. I.D. No. 9, motif within the V3 loop of Gp 120, amino acids 315 to 321]
[1]
  apoptotic/modulator properties of peptide or motif: apoptosis-inducing motif

## Ceramide
[2]
  DNA laddering, positive control: DNA laddering characteristic of apoptotic cells was observed

## GRAFYTTKY [Seq. I.D. No. 11]
[1]; equivalent molar ration (9 mer peptide is 2% of the full protein)
  apoptosis relative to that observed from the full gp 120 protein: about 60%

## NAACAWLEAQ [Seq. I.D. No. 7, 10 mer peptide spanning amino acids 50-60 of the Nef protein]
[1]; equivalent molar ration (10 mer peptide is 5% the amount of full protein)
  apoptosis relative to that observed for the full Nef protein: ~100%

## ALAETCONAWA [Seq. I.D. No. 8, reference compound]
[1]
  apoptotic/modulator properties of peptide or motif: lost all apoptotic effects
